Consider one compound from US20040247589A1, “Anti-tumor activity from reptile serum” (priority 2001, published 2004).

One data set relates to PN71 cells. Briefly: Cell proliferation assay (BrdU) in PN71 cells. Format: cell-based, murine. As for the experimental part: (§1) Cell proliferation was assayed using the commercial ELISA kit BIOTRACK™ (RPN250, Amersham Life Sciences). The assay is based on incorporation of 5-bromo-2′-deoxyuridine (BrdU) during DNA synthesis. After treatment of cells with the tested agent for 24 hours, cells are incubated for 18 hours in the presence of 10 μM BrdU. This pyrimidine analog is incorporated into DNA and is detected using specific antibody conjugated to peroxidase following 3,3′,5′,5′-tetramethylbenzidine (TMB) as a substrate. The absorbance of the enzymatic product is measured at 450 nm.

A further data set concerns normal bone marrow cells. Briefly: Cell proliferation assay (BrdU) in normal bone marrow cells. Format: cell-based. The settings on record: normal human bone marrow cells. As for the experimental part: as §1

Structures are written as SMILES.

On to `Nc1ccn([C@@H]2O[C@H](CO)[C@@H](O)[C@@H]2O)c(=O)n1` [Cytosar, Cytarabine], for which, in the data set with PN71 cells, the “effect on proliferation (BrdU) of PN71 cells” value is listed as “indiscriminately destroys”. Further, the “effect on proliferation (BrdU) of normal bone marrow cells” value with normal bone marrow cells was “indiscriminately destroys”.
